Data as given in US6489469B1, “Method for storing or transporting erythritol solution” (Nikken Chemicals Co., Ltd., priority 1999, dated 2002).

Columns and labels:
[1] = test system: Aspergillus niger IFO 6342; test: Viable Count of Aspergillus niger IFO 6342 in Erythritol Solution; assay type: cell-based; details: for The Number of Viable Cell: 60° C., 60% w/w
Description: (§1) Erythritol solutions of respective concentrations in the range of from 30 to 60% were prepared. To these were inoculated Staphylococcus aureus IFO 13276, Bacillus subtilis IFO 3134, and Escherichia coli IFO 3972 as bacteria, Candida albicans IFO 1549 and Saccharomyces cerevisiae ATCC 9763 as yeasts, Aspergillus niger IFO 6342, Aspergillus flavus IFO 6343, and Penicillium funiculosum IFO 6345 as fungi, respectively, in a population (concentration) of 10,000 cells/mL or more. After the inoculation, the solutions were stored at 30, 37, 45, 50, or 60° C., respectively, for 56 days and the number of viable cell was determined daily. The determination of the number of viable cell was performed by a method of coating 0.1 mL of appropriately diluted sample cultivation on an agar plate and cultivating and counting the number of viable cell (the number of colony) that grew after the cultivation.

[2] = test system: Candida albicans IFO 1549; test: Viable Count of Candida albicans IFO 1549 in Erythritol Solution; assay type: cell-based
Description: as §1

SMILES: OC[C@@H](O)[C@@H](O)CO [Erythritol Solution, erythritol]
- The Number of Viable Cell ([1]; Day 7): 0 cells/mL
- The Number of Viable Cell ([1]; Day 14): 0 cells/mL
- The Number of Viable Cell ([1]; Day 28): 0 cells/mL
- The Number of Viable Cell ([1]; Day 56): 0 cells/mL
- growth of the microbes ([1]; temperature of 50° C. or more): prevented from growing
- time after which microbes died ([1]; temperature of 50° C. or more): 7 days
- The Number of Viable Cell ([2]; 37° C., 30% w/w, Day 0): ≥ 10000 cells/mL
- The Number of Viable Cell ([2]; 37° C., 30% w/w, Day 3): ≥ 10000 cells/mL
- The Number of Viable Cell ([2]; 37° C., 30% w/w, Day 7): ≥ 10000 cells/mL
- The Number of Viable Cell ([2]; 37° C., 30% w/w, Day 14): ≥ 10000 cells/mL
- The Number of Viable Cell ([2]; 37° C., 30% w/w, Day 28): ≥ 10000 cells/mL
- The Number of Viable Cell ([2]; 37° C., 30% w/w, Day 56): ≥ 10000 cells/mL
- The Number of Viable Cell ([2]; 37° C., 40% w/w, Day 0): ≥ 10000 cells/mL
- The Number of Viable Cell ([2]; 37° C., 40% w/w, Day 3): ≥ 10000 cells/mL
- The Number of Viable Cell ([2]; 37° C., 40% w/w, Day 7): ≥ 10000 cells/mL
- The Number of Viable Cell ([2]; 37° C., 40% w/w, Day 14): ≥ 10000 cells/mL
- The Number of Viable Cell ([2]; 37° C., 40% w/w, Day 28): ≥ 10000 cells/mL
- The Number of Viable Cell ([2]; 37° C., 40% w/w, Day 56): ≥ 10000 cells/mL
- The Number of Viable Cell ([2]; 45° C., 30% w/w, Day 0): ≥ 10000 cells/mL
- The Number of Viable Cell ([2]; 45° C., 30% w/w, Day 3): 190 cells/mL
- The Number of Viable Cell ([2]; 45° C., 30% w/w, Day 7): 0 cells/mL
- The Number of Viable Cell ([2]; 45° C., 30% w/w, Day 14): 0 cells/mL
- The Number of Viable Cell ([2]; 45° C., 30% w/w, Day 28): 0 cells/mL
- The Number of Viable Cell ([2]; 45° C., 30% w/w, Day 56): 0 cells/mL
- The Number of Viable Cell ([2]; 45° C., 40% w/w, Day 0): ≥ 10000 cells/mL
- The Number of Viable Cell ([2]; 45° C., 40% w/w, Day 3): 0 cells/mL
- The Number of Viable Cell ([2]; 45° C., 40% w/w, Day 7): 0 cells/mL
- The Number of Viable Cell ([2]; 45° C., 40% w/w, Day 14): 0 cells/mL
- The Number of Viable Cell ([2]; 45° C., 40% w/w, Day 28): 0 cells/mL
- The Number of Viable Cell ([2]; 45° C., 40% w/w, Day 56): 0 cells/mL
- The Number of Viable Cell ([2]; 45° C., 50% w/w, Day 0): ≥ 10000 cells/mL
- The Number of Viable Cell ([2]; 45° C., 50% w/w, Day 3): 0 cells/mL
- The Number of Viable Cell ([2]; 45° C., 50% w/w, Day 7): 0 cells/mL
- The Number of Viable Cell ([2]; 45° C., 50% w/w, Day 14): 0 cells/mL
- The Number of Viable Cell ([2]; 45° C., 50% w/w, Day 28): 0 cells/mL
- The Number of Viable Cell ([2]; 45° C., 50% w/w, Day 56): 0 cells/mL
- The Number of Viable Cell ([2]; 50° C., 30% w/w, Day 0): ≥ 10000 cells/mL
- The Number of Viable Cell ([2]; 50° C., 30% w/w, Day 3): 0 cells/mL
- The Number of Viable Cell ([2]; 50° C., 30% w/w, Day 7): 0 cells/mL
- The Number of Viable Cell ([2]; 50° C., 30% w/w, Day 14): 0 cells/mL
- The Number of Viable Cell ([2]; 50° C., 30% w/w, Day 28): 0 cells/mL
- The Number of Viable Cell ([2]; 50° C., 30% w/w, Day 56): 0 cells/mL
- The Number of Viable Cell ([2]; 50° C., 40% w/w, Day 0): ≥ 10000 cells/mL
- The Number of Viable Cell ([2]; 50° C., 40% w/w, Day 3): 0 cells/mL
- The Number of Viable Cell ([2]; 50° C., 40% w/w, Day 7): 0 cells/mL
- The Number of Viable Cell ([2]; 50° C., 40% w/w, Day 14): 0 cells/mL
- The Number of Viable Cell ([2]; 50° C., 40% w/w, Day 28): 0 cells/mL
- The Number of Viable Cell ([2]; 50° C., 40% w/w, Day 56): 0 cells/mL
- The Number of Viable Cell ([2]; 50° C., 50% w/w, Day 0): ≥ 10000 cells/mL
- The Number of Viable Cell ([2]; 50° C., 50% w/w, Day 3): 0 cells/mL
- The Number of Viable Cell ([2]; 50° C., 50% w/w, Day 7): 0 cells/mL
- The Number of Viable Cell ([2]; 50° C., 50% w/w, Day 14): 0 cells/mL
- The Number of Viable Cell ([2]; 50° C., 50% w/w, Day 28): 0 cells/mL
- The Number of Viable Cell ([2]; 50° C., 50% w/w, Day 56): 0 cells/mL
- growth of the microbes ([2]; temperature of 50° C. or more): prevented from growing
- time after which microbes died ([2]; temperature of 50° C. or more): 3 days
